In patent publication US20150368248A1, “2-SUBSTITUTED-6-BIARYLMETHYLAMINO-9-CYCLOPENTYL-9H-PURINE DERIVATIVES, USE THEREOF AS MEDICAMENTS, AND PHARMACEUTICAL COMPOSITIONS” (UNIVERZITA PALACKEHO V OLOMOUCI, priority 2013, published 2015):
pIC50: −log10 of the molar value. Where two headings read alike, the source gives them in different places.

Legend:
[1] = tested on: caspase-3/7 activity in Hep3B cell line; assay: One-step cellular caspase-3/7 activity assay; type: cell-based, human; conditions: 24 hours, 0 nM = 1.00
Procedure: (§1) Measurements of proapoptotic properties of new compounds were based on quantification of enzymatic activities of caspases, concretely caspases-3/7. Activity of cellular caspase-3/7 was measured according to Carrasco et al., 2003, BioTechniques, 34(5): 1064-67. Briefly, Hep3B and PLC/PRF/5 cells were incubated in the densities of 10000 cells/well in a 96-well plate overnight. Next day, the compounds in appropriate concentrations were added and cells were incubated for the 24 hours. After incubation, 3× caspase-3/7 assay buffer (150 mM HEPES pH 7.4, 450 mM NaCl, 150 mM KCl, 30 mM MgCl2, 1.2 mM EGTA, 1.5% Nonidet P40, 0.3% CHAPS, 30% sucrose, 30 mM DTT, 3 mM PMSF) with 150 μM Ac-DEVD-AMC as a substrate (Sigma-Aldrich) was added to the wells and plates were incubated at […]. The caspase-3/7 activity was measured after 6 hours using Fluoroskan Ascent microplate reader (Labsystems) at 346 nm/442 nm (excitation/emission).

[2] = tested on: caspase-3/7 activity in PLC/PRF/5 cell line; assay: One-step cellular caspase-3/7 activity assay; type: cell-based, human; conditions: 24 hours incubation, relative to 0 nM = 1.00
Procedure: as §1

[3] = tested on: p53-regulated transcription in Arn8 cells; assay: p53-dependent transcriptional activity, β-galactosidase reporter; type: cell-based; conditions: 24 h incubation
Procedure: Stronger anticancer activity of the compounds is enhanced by its positive impact on stability and activity of the tumour suppressor p53. To measure p53-dependent transcriptional activity, β-galactosidase activity was quantified in the melanoma cell line Arn8, which had been established using stable transfection of cells with a p53-responsive reporter construct pRGCAfoslacZ (Frebung et al., Cancer Res., 52, 1992-6976). Briefly, after 24 h incubation with the inhibitors the Arn8 cells were permeabilized with 0.3% Triton X-100 for 15 min and then 4-methylumbelliferon-β-D-galactopyranoside was added as a substrate to the final concentration of 80 μM. After 1 h the fluorescence of product 4-methylumbelliferon was measured at 355/460 nm (ex/em) with a Fluoroskan Ascent microplate reader (Labsystems). Data in Tab. 8 present that series of 2-substituted-6-biarylmethylamino-9-cyclopentyl-9H-purine derivatives show a dose-dependent activatory effect on p53-regulated transcription, with the maximum impact observed between 100 and 500 nM concentrations for most of prepared compounds (Tab. 8).

HCC-1.1 (3sp) = assay: MTT cytotoxicity assay (Example 30); type: cell-based; conditions: Homo sapiens, 72 h; MTT, three days after drug addition; read-out: Inhibitory concentration IC50, 3sp
Procedure: (§2) Cytotoxicity of the compounds is the major property determining their anticancer effect in vivo. One of the parameters used, as the basis for cytotoxicity assays, is the metabolic activity of viable cells.
(§3) We have been using the following cell lines: HUH-7 and PLC/PRF/5 cell lines were maintained in DMEM supplemented with 10% fetal bovine serum, penicillin (100 U/ml) and streptomycin (100 μg/ml). […] HepG2 cell line was maintained in EMEM supplemented with 10% fetal bovine serum, sodium pyruvate (0.11 g/1), penicillin (100 U/ml) and streptomycin (100 μg/ml). All cell lines were cultivated at 37° C. in 5% CO2. For cytotoxicity assays, 3000 cells (10000 cells in case of HepG2 cell line) were seeded into each well of 96 well plate and the next day tested compounds were added at various concentrations in triplicates. Three days after drug addition MTT stock solution (5 mg/ml) was added into each well and incubated for 4 h. After this incubation period, produced formazan was dissolved by DMSO and final absorbance was measured at 570 nm with Synergy H4 Hybrid Multi-Mode Microplate Reader.

Hep3B = assay: MTT cytotoxicity assay (Example 30); type: cell-based, human; conditions: MTT, three days after drug addition, read-out: Inhibitory concentration IC50, Hep3B
Procedure: as §2, §3

PLC/PRF/5 = assay: MTT cytotoxicity assay (Example 30); type: cell-based; conditions: Homo sapiens, PLC-PRF-5, 72 h; MTT, three days after drug addition; read-out: Inhibitory concentration IC50, PLC/PRF/5
Procedure: as §2, §3

HCC-1.2 (3p) = assay: MTT cytotoxicity assay (Example 30); type: cell-based; conditions: Homo sapiens, HCC-1.2, 72 h; MTT, three days after drug addition; read-out: Inhibitory concentration IC50, 3p
Procedure: as §2, §3

HUH-7 = assay: MTT cytotoxicity assay (Example 30); type: cell-based; conditions: Homo sapiens, Huh-7, 72 h; MTT, three days after drug addition; read-out: Inhibitory concentration IC50, HUH-7
Procedure: as §2, §3

HepG2 = assay: MTT cytotoxicity assay (Example 30); type: cell-based; conditions: Homo sapiens, HepG2, 72 h; MTT, three days after drug addition; read-out: Inhibitory concentration IC50, HepG2
Excerpt: Cytotoxicity of the compounds is the major property determining their anticancer effect in vivo. One of the parameters used, as the basis for cytotoxicity assays, is the metabolic activity of viable cells. For example, a microtiter assay, which uses (3-(4,5-Dimethylthiazol-2-yl)-2,5-diphenyltetrazolium bromide (MTT), is widely used to quantitate cell proliferation and cytotoxicity. For instance, this assay is used in drug screening programs and in chemosensitivity testing. Because only metabolically active living cells reduce MTT to correspond purple formazan dye, these assays detect viable cells exclusively. The quantity of reduced MTT corresponds to the number of vital cells in the culture.
We have been using the following cell lines: HUH-7 and PLC/PRF/5 cell lines were maintained in DMEM supplemented with 10% fetal bovine serum, penicillin (100 U/ml) and streptomycin (100 μg/ml). Unique HCC-1.2 (3p) and HCC-1.1 (3sp) cell lines (Zilj et al., 2009, Future Oncol, 5(8):1169-79) and Hep3B cells were cultivated in RPMI supplemented with 10% fetal bovine serum, penicillin (100 U/ml) and streptomycin (100 μg/ml). HepG2 cell line was maintained in EMEM supplemented with 10% fetal bovine serum, sodium pyruvate (0.11 g/1), penicillin (100 U/ml) and streptomycin (100 μg/ml). All cell lines were cultivated at 37° C. in 5% CO2. For cytotoxicity assays, 3000 cells (10000 cells in case of HepG2 cell line) were seeded into each well of 96 well plate and the next day tested compounds were added at various concentrations in triplicates. Three days after drug addition MTT stock solution (5 mg/ml) was added into each well and incubated for 4 h. After this incubation period, produced formazan was dissolved by DMSO and final absorbance was measured at 570 nm with Synergy H4 Hybrid Multi-Mode Microplate Reader.

[4] = tested on: human umbilical vein endothelial cells (HUVEC); assay: HUVEC proliferation, Calcein AM; type: cell-based; conditions: read-out: Inhibitory concentration for HUVEC cells - IC50
Procedure: Novel 2-substituted-6-biarylmethylamino-9-cyclopentyl-9H-purine derivatives were tested for their potential anti-angiogenic properties; we analyzed its influence on the proliferation (Tab. 9), migration and tube formation of human umbilical vein endothelial cells (HUVEC). Confluent HUVECs were seeded in 96-well microtiter plates to detect their proliferation for 24 or 72 h using Calcein AM solution (Invitrogen) and a Fluoroskan Ascent microplate reader (Labsystems) as described previously (Krystof et al., 2011, Eur J Med Chem. 2011 September; 46(9):4289-94).

[5] = tested on: human umbilical vein endothelial cells (HUVECs); assay: Migration scratch assay; type: cell-based; set-up: key to Wound area: ++: open; +: partly open; 0: closed; conditions: 24 h
Procedure: Migration assay was performed as described previously (Krystof et al., 2011, Eur J Med Chem.; 46(9):4289-94). Briefly, confluent HUVECs were scratched and immediately treated for 24 h with various doses of compounds. After incubation each well was photographed using a DP Controller system (Olympus) connected to a Olympus BX50 microscope. Migration was expressed as the proportion of pixels of the wound area in the image that were not covered by cells using “in house” software.

Clc1nc(NCc2ccc(Br)nc2)c2ncn(C3CCCC3)c2n1
melting point: 178 to 179 °C

NC1CCC(Nc2nc(NCc3ccc(-c4ccccc4O)cc3)c3ncn(C4CCCC4)c3n2)CC1 (centres unmarked) [BP17, N^2-(4-amino-cyclohexyl)-9-cyclopentyl-N^6-(2′-hydroxy-biphenyl-4-ylmethyl)-9H-purine-2,6-diamine]
Relative caspase-3/7 activity in Hep3B cell line ([1]; 200 nM): 0.89 | Relative caspase-3/7 activity in Hep3B cell line ([1]; 400 nM): 0.87 | Relative caspase-3/7 activity in Hep3B cell line ([1]; 800 nM): 0.96 | Relative caspase-3/7 activity in Hep3B cell line ([1]; 1600 nM): 0.63 | Relative caspase-3/7 activity in PLC/PRF/5 cell line ([2]; compound concentration 160 nM): 1.08 | Relative caspase-3/7 activity in PLC/PRF/5 cell line ([2]; compound concentration 320 nM): 1.09 | Relative caspase-3/7 activity in PLC/PRF/5 cell line ([2]; compound concentration 640 nM): 0.99 | Relative caspase-3/7 activity in PLC/PRF/5 cell line ([2]; compound concentration 1280 nM): 1.20 | Concentration of maximum activation [3]: 950 nM | melting point: 168 to 170 °C

Clc1nc(NCc2ccc(-n3cccn3)cc2)c2ncn(C3CCCC3)c2n1 [BP23, (2-chlor-9-cyclopentyl-9H-purine-6-yl)-(4-pyrazol-1-yl-benzyl)-amine]
pIC50 (HCC-1.1 (3sp)): 6.33 | pIC50 (Hep3B; Homo sapiens, Hep3B, 72 h): 6.36 | melting point: 165 to 167 °C

Clc1nc(NCc2ccc(-c3cccs3)nc2)c2ncn(C3CCCC3)c2n1 [BP29, (2-chlor-9-cyclopentyl-9H-purine-6-yl)-(6-thiophen-2-yl-pyridin-3-ylmethyl)-amine]
pIC50 (HCC-1.1 (3sp)): 6.07 | pIC50 (Hep3B; Homo sapiens, Hep3B, 72 h): 6.10 | melting point: 111 to 114 °C

Clc1nc(NCc2ccc(Br)cc2)c2ncn(C3CCCC3)c2n1 [BP101, (4-bromo-benzyl)-(2-chloro-9-cyclopentyl-9H-purine-6-yl)-amine]
melting point: 152 to 154 °C

NC1CCC(Nc2nc(NCc3ccc(Br)cc3)c3ncn(C4CCCC4)c3n2)CC1 (centres unmarked) [BP102, N^2-(4-amino-cyclohexyl)-N^6-(4-bromo-benzyl)-9-cyclopentyl-9H-purine-2,6-diamine]
pIC50 (PLC/PRF/5): 6.19 | pIC50 (HCC-1.1 (3sp)): 6.36 | pIC50 (HCC-1.2 (3p)): 6.31 | pIC50 (HUH-7): 6.41 | pIC50 (Hep3B; Homo sapiens, Hep3B, 72 h): 6.57 | pIC50 (HepG2): < 6.00

CC(C)(O)CNc1nc(NCc2ccc(Br)cc2)c2ncn(C3CCCC3)c2n1 [BP114, 1-[6-(4-bromo-benzylamino)-9-cyclopentyl-9H-purine-2-ylamino]-2-methyl-propan-2-ol]
melting point: 108 to 110 °C

CC(C)(O)CNc1nc(NCc2ccc(-c3ccco3)cc2)c2ncn(C3CCCC3)c2n1 [BP115, 1-[9-Cyclopentyl-6-(4-furan-2-yl-benzylamino)-9H-purine-2-ylamino]-2-methyl-propan-2-ol]
Relative caspase-3/7 activity in Hep3B cell line ([1]; 200 nM): 0.94 | Relative caspase-3/7 activity in Hep3B cell line ([1]; 400 nM): 1.05 | Relative caspase-3/7 activity in Hep3B cell line ([1]; 800 nM): 1.19 | Relative caspase-3/7 activity in Hep3B cell line ([1]; 1600 nM): 0.81 | Relative caspase-3/7 activity in PLC/PRF/5 cell line ([2]; compound concentration 160 nM): 1.17 | Relative caspase-3/7 activity in PLC/PRF/5 cell line ([2]; compound concentration 320 nM): 1.05 | Relative caspase-3/7 activity in PLC/PRF/5 cell line ([2]; compound concentration 640 nM): 0.88 | Relative caspase-3/7 activity in PLC/PRF/5 cell line ([2]; compound concentration 1280 nM): 0.98 | Concentration of maximum activation [3]: 870 nM | melting point: 121 to 123 °C

Clc1nc(NCc2ccc(-c3ccco3)nc2)c2ncn(C3CCCC3)c2n1 [BP116, (2-chloro-9-cyclopentyl-9H-purine-6-yl)-(6-furan-2-yl-pyridin-3-ylmethyl)-amine]
pIC50 (HCC-1.1 (3sp)): 6.43 | pIC50 (Hep3B; Homo sapiens, Hep3B, 72 h): 6.53 | melting point: 119 to 122 °C

Clc1nc(NCc2ccc(-c3ccco3)cc2)c2ncn(C3CCCC3)c2n1 [BP118, (2-chloro-9-cyclopentyl-9H-purine-6-yl)-(4-furan-2-yl-benzyl)-amine]
melting point: 135 to 137 °C

CCC(CO)Nc1nc(NCc2ccc(-c3ccccn3)cc2)c2ncn(C(C)C)c2n1 (centres unmarked) [CR8, reference compound]
pIC50 (Hep3B): < 5.70 | pIC50 ([4]; 24 h): < 4.30 | pIC50 ([4]; 72 h): 6.21 | Concentration of maximum activation [3]: 1600 nM | Wound area ([5]; 100 nM): 0 | Wound area ([5]; 1000 nM): +

Cn1cnc2c(NCc3ccccc3)nc(NCCO)nc21 [olomoucine, reference compound]
Wound area ([5]; 100 nM): 0 | Wound area ([5]; 1000 nM): 0

CC[C@H](CO)Nc1nc(NCc2ccccc2)c2ncn(C(C)C)c2n1 [roscovitine, reference compound]
Concentration of maximum activation [3]: >10000 nM | Wound area ([5]; 100 nM): 0 | Wound area ([5]; 1000 nM): 0
